Starred links: 1 amine or outer side, 2 acyl side, 3 side chain; linkers in the order of their positions; H or OH if unused. Non-standard residues stand in square brackets, D forms with d. Residues, ends and D or L forms follow the SMILES beside them. Groups on a side chain read outwards from the residue. *: point of attachment. Phe(4-CH2NH2) = NCc1ccc(C[C@H](N)C(=O)O)cc1; C18 diacid = O=C(O)CCCCCCCCCCCCCCCCC(=O)*; C16 diacid = O=C(O)CCCCCCCCCCCCCCC(=O)*; γGlu = O=C(O)[C@H](CCC(=O)[*:2])N[*:1]; Met(O2) = CS(=O)(=O)CC[C@H](N)C(=O)O; αMeD = C[C@](N)(CC(=O)O)C(=O)O; AEEA = NCCOCCOCC(=O)O; Aib = CC(C)(N)C(=O)O
Key:
[1] = molecular target: T1, human GCGR (Homo sapiens, UniProt P47871); experiment: cAMP activity assay, cells expressing human GCGR; assay type: cell-based; conditions: for EC50: cAMP production, cells expressing human GCGR, assay buffer with or without 20% human serum (not stated which), read-out: GCGR EC50 human; for hGCGR/hGLP1R (hTone): ratio of human GCGR EC50 to human GLP1R EC50
T1 construct: expressed in transfected cells; kept under Blasticidin and Hygromycin selection
T1 sequence (P47871 26-477): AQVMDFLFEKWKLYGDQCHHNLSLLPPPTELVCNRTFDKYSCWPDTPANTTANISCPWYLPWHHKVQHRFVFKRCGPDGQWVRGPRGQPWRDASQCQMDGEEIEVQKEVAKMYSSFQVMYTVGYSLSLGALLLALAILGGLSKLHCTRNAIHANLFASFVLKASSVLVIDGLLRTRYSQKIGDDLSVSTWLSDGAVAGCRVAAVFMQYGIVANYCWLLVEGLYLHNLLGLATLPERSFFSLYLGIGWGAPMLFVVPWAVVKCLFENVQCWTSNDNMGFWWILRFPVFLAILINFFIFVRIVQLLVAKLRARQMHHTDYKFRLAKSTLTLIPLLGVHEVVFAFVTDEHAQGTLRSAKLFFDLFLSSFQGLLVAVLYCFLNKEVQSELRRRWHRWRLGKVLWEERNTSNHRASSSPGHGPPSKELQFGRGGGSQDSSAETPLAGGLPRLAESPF
Method in brief: (§1)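 Peptides as 10-point titrations from DMSO tested on cells expressing human GLP1R or GCGR. cAMP measured by luminescent kit after overnight room-temperature incubation in the dark. EC50 from four-parameter logistic fit; native GLP-1 and glucagon as controls.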

[2] = molecular target: T2, human GLP1R (Homo sapiens, UniProt P43220); experiment: cAMP activity assay, cells expressing human GLP1R; assay type: cell-based; conditions: cAMP production, assay buffer with or without 20% human serum (not stated which)
T2 construct: expressed in transfected cells; kept under Blasticidin and Hygromycin selection
T2 sequence (P43220 24-463): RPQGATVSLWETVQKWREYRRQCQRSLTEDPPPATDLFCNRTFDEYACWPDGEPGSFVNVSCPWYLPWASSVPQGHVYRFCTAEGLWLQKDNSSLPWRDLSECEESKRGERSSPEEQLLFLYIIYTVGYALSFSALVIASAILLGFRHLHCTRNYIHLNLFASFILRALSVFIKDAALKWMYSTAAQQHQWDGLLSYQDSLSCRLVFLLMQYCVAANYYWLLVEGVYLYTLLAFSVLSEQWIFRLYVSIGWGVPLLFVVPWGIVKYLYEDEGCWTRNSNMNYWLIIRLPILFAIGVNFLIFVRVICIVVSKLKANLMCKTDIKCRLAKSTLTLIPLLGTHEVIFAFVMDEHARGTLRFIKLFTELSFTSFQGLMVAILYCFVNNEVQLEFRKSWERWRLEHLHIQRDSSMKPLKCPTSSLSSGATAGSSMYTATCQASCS
Method in brief: as §1

CC(C)C[C@H](NC(=O)[C@H](CC(C)C)NC(=O)[C@H](CCCCN)NC(=O)[C@H](CO)NC(=O)[C@H](Cc1ccc(O)cc1)NC(=O)[C@H](CC(=O)O)NC(=O)[C@H](CO)NC(=O)[C@@H](NC(=O)[C@H](Cc1ccccc1)NC(=O)[C@@H](NC(=O)CNC(=O)[C@H](CCC(N)=O)NC(=O)C(C)(C)NC(=O)[C@@H](N)Cc1c[nH]cn1)[C@@H](C)O)[C@@H](C)O)C(=O)N[C@@H](CC(=O)O)C(=O)N[C@@H](C)C(=O)N[C@@H](CCCNC(=N)N)C(=O)N[C@@H](C)C(=O)N[C@@H](C)C(=O)N[C@@H](CCCCNC(=O)COCCOCCNC(=O)COCCOCCNC(=O)CC[C@H](NC(=O)CCCCCCCCCCCCCCCCC(=O)O)C(=O)O)C(=O)N[C@@H](CC(=O)O)C(=O)N[C@@H](Cc1ccccc1)C(=O)N[C@H](C(=O)N[C@@H](CCC(N)=O)C(=O)N[C@@H](Cc1c[nH]c2ccccc12)C(=O)N[C@@H](CC(C)C)C(=O)N[C@@H](CCS(C)(=O)=O)C(=O)N[C@@](C)(CC(=O)O)C(=O)N[C@H](C(N)=O)[C@@H](C)O)C(C)C [compound 79] (H-H[Aib]QGTFTSDYSKLLDARAAK([AEEA-AEEA-γGlu-C18 diacid])DFVQWL[Met(O2)][αMeD]T-NH2)
EC50 [1]: 0.69 nM | hGCGR/hGLP1R (hTone) [1]: 0.8 | EC50 [2]: 0.84 nM

CC(C)C[C@H](NC(=O)[C@H](Cc1ccc(O)cc1)NC(=O)[C@H](CCCCN)NC(=O)[C@H](CO)NC(=O)[C@H](Cc1ccc(CNC(=O)COCCOCCNC(=O)COCCOCCNC(=O)CC[C@H](NC(=O)CCCCCCCCCCCCCCC(=O)O)C(=O)O)cc1)NC(=O)[C@H](CC(=O)O)NC(=O)[C@H](CO)NC(=O)[C@@H](NC(=O)[C@H](Cc1ccccc1)NC(=O)[C@@H](NC(=O)CNC(=O)[C@H](CCC(N)=O)NC(=O)C(C)(C)NC(=O)[C@@H](N)Cc1c[nH]cn1)[C@@H](C)O)[C@@H](C)O)C(=O)N[C@@H](CC(=O)O)C(=O)N[C@@H](CCC(=O)O)C(=O)N[C@@H](CCCNC(=N)N)C(=O)N[C@@H](C)C(=O)N[C@@H](C)C(=O)N[C@@H](CCC(N)=O)C(=O)N[C@@H](CC(=O)O)C(=O)N[C@@H](Cc1ccccc1)C(=O)N[C@H](C(=O)N[C@@H](CCC(N)=O)C(=O)N[C@@H](Cc1c[nH]c2ccccc12)C(=O)N[C@@H](CC(C)C)C(=O)N[C@@H](CC(C)C)C(=O)N[C@@H](CCCCN)C(=O)N[C@H](C(N)=O)[C@@H](C)O)C(C)C [compound 8] (H-H[Aib]QGTFTSD[Phe(4-CH2NH2)]([AEEA-AEEA-γGlu-C16 diacid])SKYLDERAAQDFVQWLLKT-NH2)
EC50 [1]: 0.42 nM | hGCGR/hGLP1R (hTone) [1]: 15.26 | EC50 [2]: 0.03 nM

CC(C)C[C@H](NC(=O)[C@H](Cc1ccc(O)cc1)NC(=O)[C@H](CCCCN)NC(=O)[C@H](CO)NC(=O)[C@H](Cc1ccc(O)cc1)NC(=O)[C@H](CC(=O)O)NC(=O)[C@H](CO)NC(=O)[C@@H](NC(=O)[C@H](Cc1ccccc1)NC(=O)[C@@H](NC(=O)CNC(=O)[C@H](CCC(N)=O)NC(=O)C(C)(C)NC(=O)[C@@H](N)Cc1c[nH]cn1)[C@@H](C)O)[C@@H](C)O)C(=O)N[C@@H](CC(=O)O)C(=O)N[C@@H](C)C(=O)N[C@@H](CCCNC(=N)N)C(=O)N[C@@H](C)C(=O)N[C@@H](C)C(=O)N[C@@H](CCCCNC(=O)COCCOCCNC(=O)COCCOCCNC(=O)CC[C@H](NC(=O)CCCCCCCCCCCCCCCCC(=O)O)C(=O)O)C(=O)N[C@@H](CC(=O)O)C(=O)N[C@@H](Cc1ccccc1)C(=O)N[C@H](C(=O)N[C@@H](CCC(N)=O)C(=O)N[C@@H](Cc1c[nH]c2ccccc12)C(=O)N[C@@H](CC(C)C)C(=O)N[C@@H](CCS(C)(=O)=O)C(=O)N[C@@](C)(CC(=O)O)C(=O)N[C@H](C(N)=O)[C@@H](C)O)C(C)C [compound 33] (H-H[Aib]QGTFTSDYSKYLDARAAK([AEEA-AEEA-γGlu-C18 diacid])DFVQWL[Met(O2)][αMeD]T-NH2)
EC50 [1]: 0.3 nM | hGCGR/hGLP1R (hTone) [1]: 4.00 | EC50 [2]: 0.07 nM

CC(C)C[C@H](NC(=O)[C@H](Cc1ccc(O)cc1)NC(=O)[C@H](CCCCN)NC(=O)[C@H](CO)NC(=O)[C@H](Cc1ccc(O)cc1)NC(=O)[C@H](CC(=O)O)NC(=O)[C@H](CO)NC(=O)[C@@H](NC(=O)[C@H](Cc1ccccc1)NC(=O)[C@@H](NC(=O)CNC(=O)[C@H](CCC(N)=O)NC(=O)[C@@H](CO)NC(=O)[C@@H](N)Cc1c[nH]cn1)[C@@H](C)O)[C@@H](C)O)C(=O)N[C@@H](CC(=O)O)C(=O)N[C@@H](C)C(=O)N[C@@H](CCCNC(=N)N)C(=O)N[C@@H](C)C(=O)N[C@@H](C)C(=O)N[C@@H](Cc1ccc(CNC(=O)COCCOCCNC(=O)COCCOCCNC(=O)CC[C@H](NC(=O)CCCCCCCCCCCCCCC(=O)O)C(=O)O)cc1)C(=O)N[C@@H](CC(=O)O)C(=O)N[C@@H](Cc1ccccc1)C(=O)N[C@H](C(=O)N[C@@H](CCC(N)=O)C(=O)N[C@@H](Cc1c[nH]c2ccccc12)C(=O)N[C@@H](CC(C)C)C(=O)N[C@@H](CC(C)C)C(=O)N[C@@H](CC(=O)O)C(=O)N[C@H](C(N)=O)[C@@H](C)O)C(C)C [compound 22] (H-H[dS]QGTFTSDYSKYLDARAA[Phe(4-CH2NH2)]([AEEA-AEEA-γGlu-C16 diacid])DFVQWLLDT-NH2)
EC50 [1]: 0.02 nM | hGCGR/hGLP1R (hTone) [1]: 0.08 | EC50 [2]: 0.29 nM

CC(C)C[C@H](NC(=O)[C@H](Cc1ccc(O)cc1)NC(=O)[C@H](CCCCN)NC(=O)[C@H](CO)NC(=O)[C@H](Cc1ccc(O)cc1)NC(=O)[C@H](CC(=O)O)NC(=O)[C@H](CO)NC(=O)[C@@H](NC(=O)[C@H](Cc1ccccc1)NC(=O)[C@@H](NC(=O)CNC(=O)[C@H](CCC(N)=O)NC(=O)C(C)(C)NC(=O)[C@@H](N)Cc1c[nH]cn1)[C@@H](C)O)[C@@H](C)O)C(=O)N[C@@H](CC(=O)O)C(=O)N[C@@H](C)C(=O)N[C@@H](CCCNC(=N)N)C(=O)N[C@@H](C)C(=O)N[C@@H](C)C(=O)N[C@@H](CCCCNC(=O)COCCOCCNC(=O)COCCOCCNC(=O)CC[C@H](NC(=O)CCCCCCCCCCCCCCC(=O)O)C(=O)O)C(=O)N[C@@](C)(CC(=O)O)C(=O)N[C@@H](Cc1ccccc1)C(=O)N[C@H](C(=O)N[C@@H](CCC(N)=O)C(=O)N[C@@H](Cc1c[nH]c2ccccc12)C(=O)N[C@@H](CC(C)C)C(=O)N[C@@H](CCS(C)(=O)=O)C(=O)N[C@@H](CC(=O)O)C(=O)N[C@H](C(N)=O)[C@@H](C)O)C(C)C [compound 42] (H-H[Aib]QGTFTSDYSKYLDARAAK([AEEA-AEEA-γGlu-C16 diacid])[αMeD]FVQWL[Met(O2)]DT-NH2)
EC50 [1]: 0.13 nM | hGCGR/hGLP1R (hTone) [1]: 3.21 | EC50 [2]: 0.04 nM

CC(C)C[C@H](NC(=O)[C@H](Cc1ccc(O)cc1)NC(=O)[C@H](CCCCN)NC(=O)[C@H](CO)NC(=O)[C@H](Cc1ccc(O)cc1)NC(=O)[C@H](CC(=O)O)NC(=O)[C@H](CO)NC(=O)[C@@H](NC(=O)[C@H](Cc1ccccc1)NC(=O)[C@@H](NC(=O)CNC(=O)[C@H](CCC(N)=O)NC(=O)C(C)(C)NC(=O)[C@@H](N)Cc1c[nH]cn1)[C@@H](C)O)[C@@H](C)O)C(=O)N[C@@H](CC(=O)O)C(=O)N[C@@H](CCC(=O)O)C(=O)N[C@@H](CCCNC(=N)N)C(=O)N[C@@H](C)C(=O)N[C@@H](C)C(=O)N[C@@H](Cc1ccc(CNC(=O)COCCOCCNC(=O)COCCOCCNC(=O)CC[C@H](NC(=O)CCCCCCCCCCCCCCC(=O)O)C(=O)O)cc1)C(=O)N[C@@H](CC(=O)O)C(=O)N[C@@H](Cc1ccccc1)C(=O)N[C@H](C(=O)N[C@@H](CCC(N)=O)C(=O)N[C@@H](Cc1c[nH]c2ccccc12)C(=O)N[C@@H](CC(C)C)C(=O)N[C@@H](CC(C)C)C(=O)N[C@@H](CCCCN)C(=O)N[C@H](C(N)=O)[C@@H](C)O)C(C)C [compound 26] (H-H[Aib]QGTFTSDYSKYLDERAA[Phe(4-CH2NH2)]([AEEA-AEEA-γGlu-C16 diacid])DFVQWLLKT-NH2)
EC50 [1]: 0.52 nM | hGCGR/hGLP1R (hTone) [1]: 4.68 | EC50 [2]: 0.11 nM

CC(C)C[C@H](NC(=O)[C@H](Cc1ccc(O)cc1)NC(=O)[C@H](CCCCN)NC(=O)[C@H](CO)NC(=O)[C@H](Cc1ccc(O)cc1)NC(=O)[C@H](CC(=O)O)NC(=O)[C@H](CO)NC(=O)[C@@H](NC(=O)[C@H](Cc1ccccc1)NC(=O)[C@@H](NC(=O)CNC(=O)[C@H](CCC(N)=O)NC(=O)C(C)(C)NC(=O)[C@@H](N)Cc1c[nH]cn1)[C@@H](C)O)[C@@H](C)O)C(=O)N[C@@H](CC(=O)O)C(=O)N[C@@H](C)C(=O)N[C@@H](CCCNC(=N)N)C(=O)N[C@@H](C)C(=O)N[C@@H](C)C(=O)N[C@@H](CCC(N)=O)C(=O)N[C@@H](CCCCNC(=O)COCCOCCNC(=O)COCCOCCNC(=O)CC[C@H](NC(=O)CCCCCCCCCCCCCCCCC(=O)O)C(=O)O)C(=O)N[C@@H](Cc1ccccc1)C(=O)N[C@H](C(=O)N[C@@H](CCC(N)=O)C(=O)N[C@@H](Cc1c[nH]c2ccccc12)C(=O)N[C@@H](CC(C)C)C(=O)N[C@@H](CCS(C)(=O)=O)C(=O)N[C@@](C)(CC(=O)O)C(=O)N[C@H](C(N)=O)[C@@H](C)O)C(C)C [compound 71] (H-H[Aib]QGTFTSDYSKYLDARAAQK([AEEA-AEEA-γGlu-C18 diacid])FVQWL[Met(O2)][αMeD]T-NH2)
EC50 [1]: 0.13 nM | hGCGR/hGLP1R (hTone) [1]: 1 | EC50 [2]: 0.17 nM

CC(C)C[C@H](NC(=O)[C@H](Cc1ccc(O)cc1)NC(=O)[C@H](CCCCN)NC(=O)[C@H](CO)NC(=O)[C@H](Cc1ccc(O)cc1)NC(=O)[C@H](CC(=O)O)NC(=O)[C@H](CO)NC(=O)[C@@H](NC(=O)[C@H](Cc1ccccc1)NC(=O)[C@@H](NC(=O)CNC(=O)[C@H](CCC(N)=O)NC(=O)C(C)(C)NC(=O)[C@@H](N)Cc1c[nH]cn1)[C@@H](C)O)[C@@H](C)O)C(=O)N[C@@H](CC(=O)O)C(=O)N[C@@H](CCC(=O)O)C(=O)N[C@@H](CCCNC(=N)N)C(=O)N[C@@H](C)C(=O)N[C@@H](C)C(=O)N[C@@H](CCC(N)=O)C(=O)N[C@@H](Cc1ccc(CNC(=O)COCCOCCNC(=O)COCCOCCNC(=O)CC[C@H](NC(=O)CCCCCCCCCCCCCCC(=O)O)C(=O)O)cc1)C(=O)N[C@@H](Cc1ccccc1)C(=O)N[C@H](C(=O)N[C@@H](CCC(N)=O)C(=O)N[C@@H](Cc1c[nH]c2ccccc12)C(=O)N[C@@H](CC(C)C)C(=O)N[C@@H](CC(C)C)C(=O)N[C@@H](CCCCN)C(=O)N[C@H](C(N)=O)[C@@H](C)O)C(C)C [compound 27] (H-H[Aib]QGTFTSDYSKYLDERAAQ[Phe(4-CH2NH2)]([AEEA-AEEA-γGlu-C16 diacid])FVQWLLKT-NH2)
EC50 [1]: 0.44 nM | hGCGR/hGLP1R (hTone) [1]: 9.24 | EC50 [2]: 0.05 nM

Source: patent US11492385B2, “Long-acting co-agonists of the glucagon and GLP-1 receptors” (Merck Sharp & Dohme Corp., priority 2015, dated 2022)
